Structures can show the parent of a compound that is named as a salt.
Columns and labels:
[1] = target: T1, Human fibrinogen receptor IIb/IIIa (Homo sapiens, UniProt P05106+P08514); experiment: Purified IIb/IIIa receptor assay: solid phase receptor assay, competition with biotinylated vitronectin; assay type: binding; conditions: 1 nM biotinylated vitronectin
T1 construct: Human fibrinogen receptor ([…]) was purified from outdated platelets; from tissue; host or cells: outdated human platelets
Description: Purified IIb/IIIa Receptor Assay
Human fibrinogen receptor ([…]) was purified from outdated platelets. (Pytela, R., Pierschbacher, M. D., Argraves, S., Suzuki, S., and Rouslahti, E. “Arginine-Glycine-Aspartic acid adhesion receptors”, Methods in Enzymology 144(1987):475-489.) Human vitronectin was purified from fresh frozen plasma as described in Yatohgo, T., Izumi, M., Kashiwagi, H., and Hayashi, M., “Novel purification of vitronectin from human plasma by heparin affinity chromatography,” Cell Structure and Function 13(1988):281-292. Biotinylated human vitronectin was prepared by coupling NHS-biotin from Pierce Chemical Company (Rockford, Ill.) to purified vitronectin as previously described. (Charo, I. F., Nannizzi, L., Phillips, D. R., Hsu, M. A., Scarborough, R. M., “Inhibition of fibrinogen binding to GP IIb/IIIa by a GP IIIa peptide”, J. Biol. Chem. 266(3)(1991): 1415-1421.) Assay buffer, OPD substrate tablets, and RIA grade BSA were obtained from Sigma (St. Louis, Mo.). Anti-biotin antibody was obtained from Calbiochem (La Jolla, Calif.). Linbro microtiter plates were obtained from Flow Labs (McLean, Vs.). ADP reagent was obtained from Sigma (St. Louis, Mo.).
This assay is essentially the same reported in Niiya, K., Hodson, E., Bader, R., Byers-Ward, V. Koziol, J. A., Plow, E. F. and Ruggeri, Z. M., “Increased surface expression of the membrane glycoprotein IIb/IIIa complex induced by platelet activation: Relationships to the binding of fibrinogen and platelet aggregation”, Blood 70(1987):475-483. The purified human fibrinogen receptor ([…]) was diluted from stock solutions to 1.0 μg/mL in Tris-buffered saline containing 1.0 mM Ca^++, Mg^++, and Mn^++, pH 7.4 (TBS^+++). The diluted receptor was immediately transferred to Linbro microtiter plates at 100 μL/well (100 ng receptor/well). The plates were sealed and incubated overnight at 4° C. to allow the receptor to bind to the wells. All remaining Steps were at room temperature. The assay plates were emptied and 200 μL of 1% RIA grade BSA in TBS^+++ (TBS^+++/BSA) were added to block exposed plastic surfaces. Following a 2 hour incubation, the assay plates were washed with TBS^+++ using a 96 well plate washer. Logarithmic serial dilution of the test compound and controls were made starting at a stock concentration of 2 mM and using 2 nM biotinylated vitronectin in TBS^+++/BSA as the diluent. This premixing of labeled ligand with test (or control) ligand, and subsequent transfer of 50 μL aliquots to the assay plate was carried out with a CETUS Propette robot; the final concentration of the labeled ligand was 1 nM and the highest concentration of test compound was 1.0×10^−4 M. The competition occurred for two hours after which all wells were washed with a plate washer as before. Affinity purified horseradish peroxidase labeled goat anti-biotin antibody was diluted 1:3000 in TBS^+++/BSA and 125 μL were added to each well. After 30 minutes, the plates were washed and incubated with […] substrate in 100 mM/L citrate buffer, pH 5.0. The plate was read with a microtiter plate reader at a wavelength of 450 nm and when the maximum-binding control wells reached an absorbance of about 1.0, the final A450 were recorded for analysis. The data were analyzed using a macro written for use with the EXCELJ spreadsheet program. The mean, standard deviation, and % CV were determined for duplicate concentrations. The mean A450 values were normalized to the mean of four maximum-binding controls (no competitor added)(B-MAX). The normalized values were subjected to a four parameter curve fit algorithm, [Robard et al., Int. Atomic Energy Agency.

[2] = target: T2, Human vitronectin receptor (αvβ3) (Homo sapiens, UniProt P05106+P06756); experiment: Vitronectin adhesion assay: solid phase receptor assay, competition with biotinylated vitronectin; assay type: binding; conditions: purified human vitronectin receptor; 1 nM biotinylated vitronectin
T2 construct: Human vitronectin receptor (αvβ3) was purified from human placenta; from tissue; host or cells: human placenta
Procedure: Vitronectin Adhesion Assay
Human vitronectin receptor (αvβ3) was purified from human placenta as previously described [Pytela et al., Methods in Enzymology, 144:475-489 (1987)]. Human vitronectin was purified from fresh frozen plasma as previously described [Yatohgo et al., Cell Structure and Function, 13:281-292 (1988)]. Biotinylated human vitronectin was prepared by coupling NHS-biotin from Pierce Chemical Company (Rockford, Ill.) to purified vitronectin as previously described [Charo et al., J. Biol. Chem., 266(3):1415-1421 (1991)]. Assay buffer, OPD substrate tablets, and RIA grade BSA were obtained from Sigma (St. Louis, Mo.). Anti-biotin antibody was obtained from Calbiochem (La Jolla, Calif.). Linbro microtiter plates were obtained from Flow Labs (McLean, Va.). ADP reagent was obtained from Sigma (St. Louis, Mo.).
This assay was essentially the same as previously reported [Niiya et al., Blood, 70:475-483 (1987)]. The purified human vitronectin receptor (αvβ3) was diluted from stock solutions to 1.0 μg/mL in Tris-buffered saline containing 1.0 mM Ca^++, Mg^++, and Mn^++, pH 7.4 (TBS^+++). The diluted receptor was immediately transferred to Linbro microtiter plates at 100 μL/well (100 ng receptor/well). The plates were sealed and incubated overnight at 4° C. to allow the receptor to bind to the wells. All remaining steps were at room temperature. The assay plates were emptied and 200 μL of 1% RIA grade BSA in TBS^+++ (TBS^+++/BSA) were added to block exposed plastic surfaces. Following a 2 hour incubation, the assay plates were washed with TBS^+++ using a 96 well plate washer. Logarithmic serial dilution of the test compound and controls were made starting at a stock concentration of 2 mM and using 2 nM biotinylated vitronectin in TBS^+++/BSA as the diluent. This premixing of labeled ligand with test (or control) ligand, and subsequent transfer of 50 μL aliquots to the assay plate was carried out with a CETUS Propette robot; the final concentration of the labeled ligand was 1 nM and the highest concentration of test compound was 1.0×10^−4 M. The competition occurred for two hours after which all wells were washed with a plate washer as before. Affinity purified horseradish peroxidase labeled goat anti-biotin antibody was diluted 1:3000 in TBS^+++/BSA and 125 μL were added to each well. After 30 minutes, the plates were washed and incubated with OPD/H2O2 substrate in 100 mM/L Citrate buffer, pH 5.0. The plate was read with a microtiter plate reader at a wavelength of 450 nm and when the maximum-binding control wells reached an absorbance of about 1.0, the final A450 were recorded for analysis. The data were analyzed using a macro written for use with the EXCELJ spreadsheet program. The mean, standard deviation, and % CV were determined for duplicate concentrations. The mean A450 values were normalized to the mean of four maximum-binding controls (no competitor added)(B-MAX). The normalized values were subjected to a four parameter curve fit algorithm [Rodbard et al., Int.

Structure (SMILES)	IC50 [1] [nM]	IC50 [2] [nM]
O=C(O)C[C@H](NC(=O)CNC(=O)c1sccc1CNC1=NCC(O)CN1)c1cc(Cl)cc(Cl)c1O (stereo partly drawn) [Example 45]	1680	1090
O=C(O)CC(NC(=O)CNC(=O)c1cc(N=C2NCCN2)c[nH]c1=O)c1cc(Cl)cc(Cl)c1O (stereo not drawn) [Example 23, N-[[5-(4,5,-dihydro-1H-imidazol-2-yl)amino]-1,2-dihydro-2-oxo-3-pyridinyl]-carbonyl]glycyl-3-(3,5-dichloro-2-hydroxyphenyl)-β-alanine, (trifluoroacetate) salt]	10100	3600
O=C(O)C[C@@H](NC(=O)CNC(=O)c1c[nH]c(=O)c(NC2=NCC(O)CN2)c1)c1cc(Cl)cc(Cl)c1O (stereo partly drawn) [Example 41]	35400	10.2
O=C(O)C[C@H](NC(=O)CNC(=O)c1cc(NC2=NCC(O)CN2)[nH]c(=O)c1)c1cc(Cl)cc(Cl)c1O (stereo partly drawn) [Example 42]	5950	3.1
O=C(O)CC(NC(=O)CNC(=O)c1ccc(NC2=NCCN2)s1)c1cc(Cl)cc(Cl)c1O (stereo not drawn) [Example 16, N-[[5-(4,5,-dihydro-1H-imidazol-2-yl)amino]-2-thienyl]carbonyl]glycyl]-3-(3,5-dichloro-2-hydroxyphenyl)-β-alanine, trifluoroacetate salt]	6180	22000
O=C(O)C[C@@H](NC(=O)CNC(=O)c1c[nH]c(=O)c(NC2=NCCN2)c1)c1cc(Cl)cc(Cl)c1O [Example 48]	27900	4.3
COc1ncc(N=C2NCCN2)cc1C(=O)NCC(=O)NC(CC(=O)O)c1cc(Cl)cc(Cl)c1O (stereo not drawn) [Example 22, N-[[(4,5,-dihydro-1H-imidazol-2-yl)amino]-2-methoxy-3-pyridinyl]carbonyl]glycyl-3-(3,5-dichloro-2-hydroxyphenyl)-β-alanine, (trifluoroacetate) salt]	1710	6.96
CC1(C)CN=C(Nc2cc(C(=O)NCC(=O)N[C@@H](CC(=O)O)c3cc(Cl)cc(Cl)c3O)c[nH]c2=O)NC1 [Example 47]	6710	0.99
O=C(O)CC(NC(=O)CNC(=O)c1cnc(Cl)c(NC2=NCCN2)c1)c1cc(Cl)cc(Cl)c1O (stereo not drawn) [Example 19, N-[[6-chloro-5-[(4,5,-dihydro-1H-imidazol-2-yl)amino]-3-pyridinyl]carbonyl]-glycyl-3-(3,5-dichloro-2-hydroxyphenyl)-β-alanine, (trifluoroacetate) salt, monohydrate]	2490	2.96

Now those with a lower IC50 [1], led by results:

IC50 [1] [nM]	IC50 [2] [nM]	Structure (SMILES)
313	1.58	N=C(N)Nc1cncc(C(=O)NCC(=O)NC(CC(=O)O)c2cc(Cl)cc(Br)c2O)c1 (stereo not drawn) [Example 1]
724	0.46	COc1ncc(C(=O)NCC(=O)NC(CC(=O)O)c2cc(Cl)cc(Cl)c2O)cc1NC1=NCCN1 (stereo not drawn) [Example 17, N-[[5-(4,5,-dihydro-1H-imidazol-2-yl)amino]-6-methoxy-3-pyridinyl]carbonyl]glycyl]-3-(3,5-dichloro-2-hydroxyphenyl)-β-alanine, bis(trifluoroacetate) salt]
49	2.1	O=C(O)CC(NC(=O)CNC(=O)c1cncc(NC2=NCC(O)CN2)c1)c1cc(Cl)cc(Br)c1O (stereo not drawn) [Example 32]
780	9.32	O=C(O)CC(NC(=O)CNC(=O)c1cc(NC2=NCCN2)cs1)c1cc(Cl)cc(Cl)c1O (stereo not drawn) [Example 13, N-[[4-[(4,5-dihydro-1H-imidazol-2-yl)amino]-2-thienyl]carbonyl]glycyl-3-(3,5-dichloro-2-hydroxyphenyl)-β-alanine, trifluoroacetate salt]
551	0.2	O=C(O)C[C@H](NC(=O)CNC(=O)c1c[nH]c(=O)c(NC2=NCC(O)CN2)c1)c1cc(Cl)cc(Cl)c1O (stereo partly drawn) [Example 21, (3S)-N-[[1,6-dihydro-6-oxo-5-[(1,4,5,6-tetrahydro-5-hydroxy-2-pyrimidinyl)amino]-3-pyridinyl]carbonyl]glycyl-3-(3,5-dichloro-2-hydroxyphenyl)-β-alanine, trifluoroacetate salt]
482	0.26	COc1ncc(C(=O)NCC(=O)N[C@@H](CC(=O)O)c2cc(Cl)cc(Cl)c2O)cc1NC1=NCC(O)CN1 (stereo partly drawn) [Example 27]
984	0.43	COCCOCn1cc(C(=O)NCC(=O)NC(CC(=O)O)c2cc(Br)cc(Br)c2O)cc(NC2=NCC(O)CN2)c1=O (stereo not drawn) [Example 28]
267	63.8	O=C(O)C[C@H](NC(=O)CNC(=O)c1csc(NC2=NCC(O)CN2)c1)c1cc(Cl)cc(Cl)c1O (stereo partly drawn) [Example 37]
1260	0.27	O=C(O)CC(NC(=O)CNC(=O)c1cncc(NC2=NCCCN2)c1)c1cc(Cl)cc(Cl)c1O (stereo not drawn) [Example 6]
161	0.14	O=C(O)C[C@H](NC(=O)CNC(=O)c1cncc(N=C2NCC(O)CN2)c1)c1cc(Cl)cc(Cl)c1O (stereo partly drawn) [Example 10]
772	12.4	Cc1sc(C(=O)NCC(=O)N[C@@H](CC(=O)O)c2cc(Cl)cc(Cl)c2O)cc1NC1=NCC(O)CN1 (stereo partly drawn) [Example 14, (3S)-N-[[5-methyl-4-[(1,4,5,6-tetrahydro-5-hydroxy-2-pyrimidinyl)amino]-2-thienyl]carbonyl]glycyl-3-(3,5-dichloro-2-hydroxyphenyl)-β-alanine, trifluoroacetate salt]
1380	0.46	O=C(O)CC(NC(=O)CNC(=O)c1c[nH]c(=O)c(NC2=NCC(O)CN2)c1)c1cc(Br)cc(Br)c1O (stereo not drawn) [Example 29]

Source: patent US6689754B1, “Heterocyclic glycyl β-alanine derivatives” (G. D. Searle & Co., priority 1998, dated 2004)
